The values below come from the NIST ThermoML archive (doi:10.1021/je060411g).

Series [1] in a line: Molar enthalpy of transition or fusion.

± gives the expanded uncertainty stated by the source.

On to `CC(C)(C)CO` [2,2-dimethyl-1-propanol], for which the “Molar enthalpy of transition or fusion” value was found to be 0.693 ± 0.0478 kcal/mol in series [1] (Crystal 1) and 0.98 ± 0.0478 kcal/mol in series [1] (Crystal 2). Besides, the Triple point temperature runs as follows: (Crystal 1) 328.2 ± 0.4 K; (Crystal 2) 233.3 ± 1 K.
On to `CCC(C)CO` (stereo not drawn) [2-methyl-1-butanol], for which, for the setting “Adiabatic calorimetry”, the Glass transition temperature was -155 ± 5 °C.
With `CCC(C)(C)O` [2-methylbutan-2-ol], the “Molar enthalpy of transition or fusion” value stood at 0.478 ± 0.0478 kcal/mol in series [1] (Crystal 1) and 0.215 ± 0.0239 kcal/mol in series [1] (Crystal 3). The Triple point temperature (Crystal 1) came out at 264.7 ± 0.4 K, the Triple point temperature (Crystal 2) is given as 215 ± 1 K and the Triple point temperature (Crystal 3) was found to be 145.8 ± 0.4 K.
For the molecule `CCC(O)CC` [3-pentanol], the Glass transition temperature is -143 ± 5 °C. In series [1] (Crystal 1), the “Molar enthalpy of transition or fusion” value worked out at 0.397 ± 0.0478 kcal/mol. Also, the Triple point temperature (Crystal) was determined as 203.2 ± 0.4 K.
